Patent US7728155B2, “Dihydrobenzofuranyl alkanamines and methods for using same as cns agents” (Wyeth LLC, priority 2003, dated 2010)
Where two headings read alike, the source gives them in different places.

Columns and labels:
human 5-HT2C receptor = target: T1, human 5-HT2C receptor (Homo sapiens, UniProt P28335); experiment: 5-HT2C receptor-stimulated calcium mobilization (FLIPR) in CHO cells; assay type: cell-based; conditions: for Emax: CHO, read-out: 5-HT2C Function Emax (%); for EC50: calcium mobilization, CHO cells expressing human 5-HT2C, read-out: 5-HT2C Function EC50
T1 sequence (P28335 33-458): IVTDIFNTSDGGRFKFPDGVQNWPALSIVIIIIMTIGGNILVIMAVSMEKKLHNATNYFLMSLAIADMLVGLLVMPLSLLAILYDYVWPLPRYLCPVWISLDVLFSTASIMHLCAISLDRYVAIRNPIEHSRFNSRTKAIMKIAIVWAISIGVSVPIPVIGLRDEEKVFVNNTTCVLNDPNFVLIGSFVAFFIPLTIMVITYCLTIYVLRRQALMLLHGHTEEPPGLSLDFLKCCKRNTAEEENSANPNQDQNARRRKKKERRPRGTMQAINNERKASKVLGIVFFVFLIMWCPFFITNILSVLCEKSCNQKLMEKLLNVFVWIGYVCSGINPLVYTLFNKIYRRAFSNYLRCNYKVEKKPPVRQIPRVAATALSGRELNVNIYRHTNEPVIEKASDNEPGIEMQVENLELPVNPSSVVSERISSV

[1] = target: T2, human 5-hydroxytryptamine-2C (h5-HT2C) receptor (Homo sapiens, UniProt P28335); experiment: [125I]DOI binding affinity at h5-HT2C receptor, CHO cell membranes; conditions: for Ki: [125I]DOI displacement, CHO membranes expressing h5-HT2C
T2 construct: expressed in transfected cells; host or cells: CHO (Chinese Hamster Ovary) cells; membranes
T2 sequence (P28335 33-458): T1 sequence (P28335 33-458)

[2] = percentage of the response to a maximally effective concentration of 5-HT

| SMILES | Emax (human 5-HT2C receptor; [2]) [%] | EC50 (human 5-HT2C receptor) [nM] | Ki ([1]; read-out: 5-HT2C Affinity Ki) [nM] | 5-HT2C Function Emax (%) (human 5-HT2C receptor; [2]) | further results |
| --- | --- | --- | --- | --- | --- |
| NCC1Cc2ccc3c(c2O1)CCC3 (racemic) [Example 1, (±)-1-(3,6,7,8-tetrahydro-2H-indeno[4,5-b]furan-2-yl)methanamine] | 90 | 31 | 10 | – | – |
| NCC1Cc2ccc3c(c2O1)CCCC3 (racemic) [Example 4, (±)-1-(2,3,6,7,8,9-hexahydronaphtho[1,2-b]furan-2-yl)methanamine] | 80 | 76 | 8 | – | – |
| Cc1cc2c(c3c1CCC3)OC(CN)C2 (racemic) [Example 7, (±)-1-(5-methyl-3,6,7,8-tetrahydro-2H-indeno[4,5-b]furan-2-yl)methanamine] | 95 | 19 | 6 | – | – |
| NCC1Cc2ccc3ccccc3c2O1 (racemic) [Example 10, (±)-1-(2,3-dihydronaphtho[1,2-b]furan-2-yl)methanamine] | 90 | 20 | 29 | – | – |
| NCC1Cc2cc3c(cc2O1)CCCC3 (racemic) [Example 13, (±)-1-(2,3,5,6,7,8-hexahydronaphtho[2,3-b]furan-2-yl)methanamine] | – | – | 99 | – | – |
| NCC1Cc2c(ccc3c2CCCC3)O1 (racemic) [Example 14, (±)-1-(1,2,6,7,8,9-hexahydronaphtho[2,1-b]furan-2-yl)methanamine] | 100 | 34 | 19 | – | – |
| COc1cc2c(c3c1C1CCC3CC1)OC(CN)C2 (racemic) [Example 19, (±)-1-(5-methoxy-2,3,6,7,8,9-hexahydro-6,9-ethanonaphtho[1,2-b]furan-2-yl)methanamine] | 100 | 25 | 7 | – | – |
| NCC1Cc2cc(Cl)c3ccccc3c2O1 (racemic) [Example 23, (±)-1-(5-chloro-2,3-dihydronaphtho[1,2-b]furan-2-yl)methanamine] | 90 | 28 | 5 | – | – |
| CNCC1Cc2cc(Cl)c3ccccc3c2O1 (racemic) [Example 24, (±)-1-(5-chloro-2,3-dihydronaphtho[1,2-b]furan-2-yl)-N-methylmethanamine] | 60 | 91 | 7 | – | – |
| NCC1Cc2c(Cl)cc3c(c2O1)CCC3 (racemic) [Example 25, (±)-1-(4-chloro-3,6,7,8-tetrahydro-2H-indeno[4,5-b]furan-2-yl)methanamine] | 80 | 4.4 | 12 | – | – |
| NCC1Cc2cc(Cl)c3c(c2O1)CCC3 (racemic) [Example 29, (±)-1-(5-chloro-3,6,7,8-tetrahydro-2H-indeno[4,5-b]furan-2-yl)methanamine] | 100 | 5.8 | 4 | – | – |
| COc1cc2c(c3c1C1CCC3C1)OC(CN)C2 (single isomer, unassigned) [Example 16, (9-methoxy-4-oxatetracyclo[9.2.1.0^2,10.0^3,7]tetradeca-2,7,9-trien-5-yl)methylamine] | – | – | 85 | – | – |
| COc1cc2c(c3c1C1CCC3C1)OC(CN)C2 (single isomer, unassigned) [Example 17, (9-methoxy-4-oxatetracyclo[9.2.1.0^2,10.0^3,7]tetradeca-2,7,9-trien-5-yl)methylamine] | 100 | 10 | 8 | – | – |
| COc1cc2c(c3c1C1CCC3C1)OC(CN)C2 (single isomer, unassigned) [Example 18, (9-methoxy-4-oxatetracyclo[9.2.1.0^2,10.0^3,7]tetradeca-2,7,9-trien-5-yl)methylamine] | – | – | 82 | – | – |
| C[C@@H](N)[C@H]1Cc2ccc3c(c2O1)CCC3 (single isomer, unassigned) [Example 22, (2R*)-1-[(2R*)-3,6,7,8-tetrahydro-2H-indeno[4,5-b]furan-2-yl]ethylamine] | – | 15 | – | – | Emax (human 5-HT2C receptor): 80%; Ki ([1]; 5-HT2C Affinity Ki (nM)): 13 nM |
| NCC1Cc2ccc3c(c2O1)CCC3 (single isomer, unassigned; (+)) [Example 2, (+)-1-(3,6,7,8-tetrahydro-2H-indeno[4,5-b]furan-2-yl)methanamine] | – | 8 | 28 | 75 | – |
| NCC1Cc2ccc3c(c2O1)CCCC3 (single isomer, unassigned; (+)) [Example 5, (+)-1-(2,3,6,7,8,9-hexahydronaphtho[1,2-b]furan-2-yl)methanamine] | – | 38 | 17 | 70 | – |
| Cc1cc2c(c3c1CCC3)OC(CN)C2 (single isomer, unassigned; (+)) [Example 8, (+)-1-(5-methyl-3,6,7,8-tetrahydro-2H-indeno[4,5-b]furan-2-yl)methanamine] | 100 | 8.3 | 6 | – | – |
| NCC1Cc2ccc3ccccc3c2O1 (single isomer, unassigned; (+)) [Example 11, (+)-1-(2,3-dihydronaphtho[1,2-b]furan-2-yl)methanamine] | – | 5.7 | 15 | 65 | – |
| COc1cc2c(c3c1C1CCC3CC1)OC(CN)C2 (single isomer, unassigned; (+)) [Example 20, (+)-1-(5-methoxy-2,3,6,7,8,9-hexahydro-6,9-ethanonaphtho[1,2-b]furan-2-yl)methanamine] | – | 91 | 22 | 60 | – |
| NCC1Cc2c(Cl)cc3c(c2O1)CCC3 (single isomer, unassigned; (+)) [Example 27, (+)-1-(4-chloro-3,6,7,8-tetrahydro-2H-indeno[4,5-b]furan-2-yl)methanamine] | – | 56 | 4 | 60 | – |
| NCC1Cc2cc(Cl)c3c(c2O1)CCC3 (single isomer, unassigned; (+)) [Example 31, (+)-1-(5-chloro-3,6,7,8-tetrahydro-2H-indeno[4,5-b]furan-2-yl)methanamine] | – | 10 | 1 | 40 | – |
| NCC1Cc2ccc3c(c2O1)CCC3 (single isomer, unassigned; (-)) [Example 3, (−)-1-(3,6,7,8-tetrahydro-2H-indeno[4,5-b]furan-2-yl)methanamine] | – | 0.9 | 5 | 100 | – |
| NCC1Cc2ccc3c(c2O1)CCCC3 (single isomer, unassigned; (-)) [Example 6, (−)-1-(2,3,6,7,8,9-hexahydronaphtho[1,2-b]furan-2-yl)methanamine] | – | 3 | 11 | 100 | – |
| Cc1cc2c(c3c1CCC3)OC(CN)C2 (single isomer, unassigned; (-)) [Example 9, (−)-1-(5-methyl-3,6,7,8-tetrahydro-2H-indeno[4,5-b]furan-2-yl)methanamine] | – | 11 | 11 | 100 | – |
| NCC1Cc2ccc3ccccc3c2O1 (single isomer, unassigned; (-)) [Example 12, (−)-1-(2,3-dihydronaphtho[1,2-b]furan-2-yl)methanamine] | – | 2 | 16 | 90 | – |
| COc1cc2c(c3c1C1CCC3CC1)OC(CN)C2 (single isomer, unassigned; (-)) [Example 21, (−)-1-(5-methoxy-2,3,6,7,8,9-hexahydro-6,9-ethanonaphtho[1,2-b]furan-2-yl)methanamine] | – | 0.8 | 4 | 90 | – |
| NCC1Cc2c(Cl)cc3c(c2O1)CCC3 (single isomer, unassigned; (-)) [Example 26, (−)-1-(4-chloro-3,6,7,8-tetrahydro-2H-indeno[4,5-b]furan-2-yl)methanamine] | 80 | 88 | 16 | – | – |
| CSc1ccc2c(c1)C(N1CCN(C)CC1)Cc1ccccc1S2 (centres unmarked) [Methiothepin, reference compound] | – | – | – | – | Ki ([1]; reference compounds, read-out: Ki (95% confidence interval)): 4.6 nM |
| COc1cc(CC(C)N)c(OC)cc1I (centres unmarked) [[^125I] DOI, reference compound] | – | – | – | – | Kd ([1]; saturation binding with increasing concentrations of [125I]DOI, read-out: dissociation constant, KD): 0.4 nM |
